The text below walks through data of patent publication US20170137855A1, “RECOMBINANT CELLS AND METHODS FOR NONPHOSPHORYLATIVE METABOLISM” (REGENTS OF THE UNIVERSITY OF MINNESOTA, priority 2015, published 2017).

Several values for one entry are separate records, joined by “and”; a condition that tells them apart may be missing. Identical values can stand only once.

As usually defined, the kcat is the maximal rate divided by the concentration of active sites. One may read the kcat/Km as the turnover number divided by the Michaelis constant. The Km is the concentration of substrate that gives half-maximal velocity.

The target of experiment [1] is T1, Burkholderia xenovorans LB400 2-keto-3-deoxy-D-xylonate dehydratase (DR64_8450) (Paraburkholderia xenovorans, UniProt Q13FD1).
T1 construct: coupled with D-xylonate dehydratase and KGSADH
T1 sequence (Q13FD1 1-395): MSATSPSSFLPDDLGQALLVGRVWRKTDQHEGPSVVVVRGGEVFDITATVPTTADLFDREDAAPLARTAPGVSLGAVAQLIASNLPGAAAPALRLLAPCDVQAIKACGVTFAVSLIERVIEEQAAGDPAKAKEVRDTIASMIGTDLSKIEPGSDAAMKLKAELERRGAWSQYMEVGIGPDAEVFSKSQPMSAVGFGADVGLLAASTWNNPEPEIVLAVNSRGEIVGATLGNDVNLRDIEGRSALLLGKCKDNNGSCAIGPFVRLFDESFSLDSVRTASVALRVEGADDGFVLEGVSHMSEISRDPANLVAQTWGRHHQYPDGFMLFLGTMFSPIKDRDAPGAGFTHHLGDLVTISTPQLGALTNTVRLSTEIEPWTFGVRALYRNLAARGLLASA
Briefly: B. xenovorans 2-keto-3-deoxy-D-xylonate dehydratase, coupled assay with KGSADH. It counts as biochemical. As for the experimental part:
(§1) 2-Keto-3-deoxy-D-xylonate dehydratase (XylX/DR64-8450), 2-keto-3-deoxy-L-arabonate dehydratase (AraD) and 5-keto-4-deoxy-D-glucarate dehydratase (YcbC): Enzyme activities of XylX, DR64-8450, AraD and YcbC were assayed spectrophotometrically in a coupled assay with the corresponding previous dehydratase and 2-ketoglutaric semialdehyde dehydrogenase (KGSADH) as previously described (Watanabe et al., 2006. J Biol. Chem. 281:33521-33536). […] The reaction was initiated by adding an appropriate amount of 2-keto-3-deoxy-D-xylonate dehydratase (XylX/DR64-8450)/2-keto-3-deoxy-L-arabonate dehydratase (AraD)/5-keto-4-deoxy-D-glucarate dehydratase (YcbC), and the increasing absorbance at 340 nm caused by NADH produced in the reaction was monitored.

Experiment [2] has as its target T2, Caulobacter crescentus 2-keto-3-deoxy-D-xylonate dehydratase (XylX) (Caulobacter vibrioides, UniProt A0A0H3C4T2).
T2 construct: coupled with XylD and KGSADH; BlpI site removed in gene
T2 sequence (A0A0H3C4T2 1-384): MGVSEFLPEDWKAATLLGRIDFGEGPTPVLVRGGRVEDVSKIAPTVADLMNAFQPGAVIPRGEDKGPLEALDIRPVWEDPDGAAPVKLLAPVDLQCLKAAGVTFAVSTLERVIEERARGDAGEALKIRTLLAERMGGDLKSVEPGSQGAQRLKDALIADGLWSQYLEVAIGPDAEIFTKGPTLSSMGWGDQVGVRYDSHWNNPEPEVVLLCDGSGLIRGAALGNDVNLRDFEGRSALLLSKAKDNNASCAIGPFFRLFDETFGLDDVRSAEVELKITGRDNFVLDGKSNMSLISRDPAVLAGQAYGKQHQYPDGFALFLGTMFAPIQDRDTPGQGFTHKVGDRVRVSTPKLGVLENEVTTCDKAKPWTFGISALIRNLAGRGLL
Briefly: C. crescentus 2-keto-3-deoxy-D-xylonate dehydratase, coupled assay with KGSADH. It is filed as biochemical. To be noted: substrate from 0-20 mM D-xylonate, 1 mM NAD+, pH 7.5, 25° C. The method, then:
as §1

Experiment [3] addresses T3, Lactococcus lactis 2-ketoacid decarboxylase Kivd, wild type (Lactococcus lactis, UniProt Q684J7).
T3 construct: also expressed from pBDO-5 in E. coli fermentation (A5)
T3 sequence (Q684J7 1-548): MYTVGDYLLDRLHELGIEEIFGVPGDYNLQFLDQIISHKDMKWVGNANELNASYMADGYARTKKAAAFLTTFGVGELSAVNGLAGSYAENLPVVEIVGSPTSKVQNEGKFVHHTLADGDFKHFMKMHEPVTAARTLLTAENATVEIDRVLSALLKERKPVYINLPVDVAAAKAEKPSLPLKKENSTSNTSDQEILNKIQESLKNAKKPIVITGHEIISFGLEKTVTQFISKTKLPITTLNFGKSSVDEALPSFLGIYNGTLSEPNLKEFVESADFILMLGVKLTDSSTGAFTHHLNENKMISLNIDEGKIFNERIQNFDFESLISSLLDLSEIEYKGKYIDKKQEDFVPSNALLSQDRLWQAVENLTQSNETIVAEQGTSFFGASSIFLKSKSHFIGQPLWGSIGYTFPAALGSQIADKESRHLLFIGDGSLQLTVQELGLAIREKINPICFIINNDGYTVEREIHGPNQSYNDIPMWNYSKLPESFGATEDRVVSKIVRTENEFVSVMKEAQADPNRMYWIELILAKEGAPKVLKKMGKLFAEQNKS
The experiment can be described thus: Kivd activity inferred from absence of BTO accumulation with L-arabinose as substrate. The settings on record: indicated by no accumulation of BTO using L-arabinose. It is filed as cell-based. As for the experimental part: 125 ml conical flasks with 0.2 g CaCO3 were autoclaved and dried to perform all small-scale fermentations. […] 200 μl of overnight cultures incubated in 2×YT medium were transferred into the flasks and placed in a shaker at a speed of 250 rpm. After adding 0.1 mM isopropyl-β-D-thiogalactoside (IPTG), the flasks were sealed by parafilm and the fermentation was performed for 48 hours at 30° C. The fermentation products were measured by HPLC.

In experiment [4] the target is T4, Bacillus subtilis 5-keto-4-deoxy-D-glucarate dehydratase (YcbC) (Bacillus subtilis, UniProt P42235).
T4 construct: His; made in house; host or cells: E. coli BL21
Briefly: 5-keto-4-deoxy-D-glucarate dehydratase, coupled assay with KGSADH. It is filed as biochemical. The settings on record: substrate from 0-20 mM D-galactarate, pH 7.5, 25° C. As for the experimental part:
as §1

Experiment [5] addresses T5, Burkholderia xenovorans LB400 D-xylose dehydrogenase (DR64_8447) (Paraburkholderia xenovorans, UniProt Q13FC8).
T5 construct: gene from LB400 genomic DNA
T5 sequence (Q13FC8 1-268): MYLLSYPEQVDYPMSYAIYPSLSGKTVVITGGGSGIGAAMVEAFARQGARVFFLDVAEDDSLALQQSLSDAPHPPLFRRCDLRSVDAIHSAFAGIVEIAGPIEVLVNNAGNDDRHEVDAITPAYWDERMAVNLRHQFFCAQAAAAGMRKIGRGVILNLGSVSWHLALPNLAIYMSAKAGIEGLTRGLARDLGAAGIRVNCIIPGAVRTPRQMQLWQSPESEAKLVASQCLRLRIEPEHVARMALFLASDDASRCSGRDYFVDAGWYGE
Briefly: B. xenovorans D-xylose dehydrogenase, NADH generation at 340 nm. The settings on record: D-xylose 0 to 10 mM, 1 mM NAD+. It is filed as biochemical. The method, then:
(§2) A series of enzymatic assays were conducted to estimate the initial activity as a function of starting substrate concentration. […] Kinetic constants (kcat/Km) for following enzymes were calculated with the same method.

Experiment [6] concerns the target T6, Caulobacter crescentus D-xylose dehydrogenase (XylB) (Caulobacter vibrioides, UniProt B8H1Z0).
T6 construct: His; made in house; host or cells: E. coli BL21
T6 sequence (B8H1Z0 1-248): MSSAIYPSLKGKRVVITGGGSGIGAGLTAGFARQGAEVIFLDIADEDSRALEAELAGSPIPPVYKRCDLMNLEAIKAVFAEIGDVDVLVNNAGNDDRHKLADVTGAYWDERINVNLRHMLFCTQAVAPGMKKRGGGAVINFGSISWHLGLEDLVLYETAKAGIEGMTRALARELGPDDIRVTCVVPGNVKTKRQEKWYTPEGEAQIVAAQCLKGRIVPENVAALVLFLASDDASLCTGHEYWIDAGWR
Briefly: C. crescentus D-xylose dehydrogenase, NADH generation at 340 nm. It counts as biochemical. To be noted: D-xylose 0 to 10 mM, 1 mM NAD+. As for the experimental part:
as §2

[7] abbreviates: 100 mM Tris-HCl, 5 mM MgCl2, pH 7.5, 30° C.

T4 sequence (P42235 whole entry): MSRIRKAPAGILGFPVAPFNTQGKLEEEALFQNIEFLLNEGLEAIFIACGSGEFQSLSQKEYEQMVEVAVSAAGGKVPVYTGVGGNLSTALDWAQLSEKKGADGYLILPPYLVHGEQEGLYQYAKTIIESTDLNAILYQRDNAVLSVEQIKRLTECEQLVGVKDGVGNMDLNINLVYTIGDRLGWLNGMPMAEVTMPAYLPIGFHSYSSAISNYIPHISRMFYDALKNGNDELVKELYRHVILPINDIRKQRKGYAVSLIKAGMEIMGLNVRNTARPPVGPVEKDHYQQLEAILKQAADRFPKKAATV

Turning to `O=C(O)C(=O)C[C@H](O)CO` [2-keto-3-deoxy-D-xylonate], the turnover number (kcat) in experiment [1] (coupled assay, substrate from 0-20 mM D-xylonate, 1 mM NAD+, pH 7.5, 25° C.) turned out to be 4.7 s⁻¹. Further, the “kcat compared to XylX of C. crescentus” value in experiment [1] (higher kcat (4.7 s^−1) vs 0.53 s^−1) is 9 fold. Also, in experiment [2], the turnover number (kcat) turned out to be 0.53 s⁻¹ and the kcat/Km came to 0.26 s⁻¹ mM⁻¹.

For `O=C(O)C(=O)C[C@@H](O)CO` [2-keto-3-deoxy-L-arabonate], the “Kivd activity on 2-keto-3-deoxy-L-arabonate” value in experiment [3] is “not active”.

Turning to `O=C(O)C(=O)C[C@H](O)[C@@H](O)C(=O)O` [5-keto-4-deoxy-D-glucarate], in experiment [4], the “specific constant (kcat/Km), compared within D-galacturonate pathway” value is reported as “lowest specific constant”.

In the case of `OC1OC[C@@H](O)[C@H](O)[C@H]1O` (stereo partly drawn) [D-xylose], the Km is 1.97 ± 0.12 mM in experiment [5] (setting [7]) and 850 ± 80 µM in experiment [6] (setting [7]). The kcat in experiment [5] (pH 7.5, 30° C.) was 49.9 ± 4.2 s⁻¹; in experiment [6] (pH 7.5, 30° C.) it was 12.1 s⁻¹ and 12.1 ± 2.2 s⁻¹.
